Experimental data taken from the supplement of paper PMC10307832.

Experiments:
Assay in all cases: relative viability (nuclei count vs DMSO), 5 days (fraction); higher = more cells survive
LCLC-97TM1 = system: LCLC-97TM1
Procedure, shortened: (§1)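 The day after seeding in 1536-well plates, lung cancer cell lines were treated by pin tool with a single drug, or with a fixed anchor-drug dose together with five library-drug doses (not always all listed) in √10 steps. After 5 days, a combined fix-and-stain solution (final 0.05% Triton X-100, 1% formaldehyde, 1 ug/ml Hoechst) was added. Nuclei counted on 4× images gave relative viability as treated counts over vehicle counts, reported as the median of duplicate plates.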

NCI-H1915 = system: NCI-H1915
Procedure, shortened: as §1

NCI-H1666 = system: NCI-H1666
Procedure, shortened: as §1

NCI-H2405 = system: NCI-H2405
Procedure, shortened: as §1

NCI-H647 = system: NCI-H647
Procedure, shortened: as §1

LC-2-ad = system: LC-2-ad
Procedure, shortened: as §1

NCI-H2087 = system: NCI-H2087
Procedure, shortened: as §1

NCI-H650 = system: NCI-H650
Procedure, shortened: as §1

RERF-LC-KJ = system: RERF-LC-KJ
Procedure, shortened: as §1

HCC-827 = system: HCC-827
Procedure, shortened: as §1

NCI-H661 = system: NCI-H661
Procedure, shortened: as §1

Nc1ccn([C@@H]2O[C@H](CO)[C@@H](O)[C@@H]2O)c(=O)n1 [Cytarabine] + C[C@]1(O)C[C@@H](c2nc(-c3ccc4ccc(-c5ccccc5)nc4c3)c3c(N)nccn32)C1 [Linsitinib] (partner 1 µM)
relative viability (LCLC-97TM1; first compound 0.05 µM): 0.111
relative viability (LCLC-97TM1; first compound 0.1581 µM): 0.101
relative viability (LCLC-97TM1; first compound 0.5 µM): 0.0967
relative viability (NCI-H1915; first compound 0.005 µM): 1.1
relative viability (NCI-H1915; first compound 0.01581 µM): 0.979
relative viability (NCI-H1915; first compound 0.05 µM): 0.842
relative viability (NCI-H1915; first compound 0.1581 µM): 0.54
relative viability (NCI-H1915; first compound 0.5 µM): 0.388
relative viability (NCI-H1666; first compound 0.005 µM): 0.774
relative viability (NCI-H1666; first compound 0.01581 µM): 0.876
relative viability (NCI-H1666; first compound 0.05 µM): 0.703
relative viability (NCI-H1666; first compound 0.1581 µM): 0.344
relative viability (NCI-H1666; first compound 0.5 µM): 0.305
relative viability (NCI-H2405; first compound 0.005 µM): 0.933
relative viability (NCI-H2405; first compound 0.01581 µM): 0.714
relative viability (NCI-H2405; first compound 0.05 µM): 0.661
relative viability (NCI-H2405; first compound 0.1581 µM): 0.498
relative viability (NCI-H2405; first compound 0.5 µM): 0.383
relative viability (NCI-H647; first compound 0.005 µM): 0.729
relative viability (NCI-H647; first compound 0.01581 µM): 0.55
relative viability (NCI-H647; first compound 0.05 µM): 0.394
relative viability (NCI-H647; first compound 0.1581 µM): 0.148
relative viability (NCI-H647; first compound 0.5 µM): 0.061
relative viability (LC-2-ad; first compound 0.005 µM): 0.851
relative viability (LC-2-ad; first compound 0.01581 µM): 0.79
relative viability (LC-2-ad; first compound 0.05 µM): 0.677
relative viability (LC-2-ad; first compound 0.1581 µM): 0.442
relative viability (LC-2-ad; first compound 0.5 µM): 0.223
relative viability (NCI-H2087; first compound 0.005 µM): 0.958
relative viability (NCI-H2087; first compound 0.01581 µM): 1.07
relative viability (NCI-H2087; first compound 0.05 µM): 0.827
relative viability (NCI-H2087; first compound 0.1581 µM): 0.752
relative viability (NCI-H2087; first compound 0.5 µM): 0.623
relative viability (NCI-H650; first compound 0.005 µM): 0.763
relative viability (NCI-H650; first compound 0.01581 µM): 0.475
relative viability (NCI-H650; first compound 0.05 µM): 0.379
relative viability (NCI-H650; first compound 0.1581 µM): 0.209
relative viability (NCI-H650; first compound 0.5 µM): 0.234
relative viability (RERF-LC-KJ; first compound 0.005 µM): 0.771
relative viability (RERF-LC-KJ; first compound 0.01581 µM): 0.787
relative viability (RERF-LC-KJ; first compound 0.05 µM): 0.757
relative viability (RERF-LC-KJ; first compound 0.1581 µM): 0.474
relative viability (RERF-LC-KJ; first compound 0.5 µM): 0.458
relative viability (HCC-827; first compound 0.005 µM): 0.631
relative viability (HCC-827; first compound 0.01581 µM): 0.604
relative viability (HCC-827; first compound 0.05 µM): 0.488
relative viability (HCC-827; first compound 0.1581 µM): 0.266
relative viability (HCC-827; first compound 0.5 µM): 0.262
relative viability (NCI-H661; first compound 0.005 µM): 0.624
relative viability (NCI-H661; first compound 0.01581 µM): 0.529
relative viability (NCI-H661; first compound 0.05 µM): 0.445
relative viability (NCI-H661; first compound 0.1581 µM): 0.286
relative viability (NCI-H661; first compound 0.5 µM): 0.21
